From patent publication US11618772B2 (Kineta Chronic Pain, LLC, priority 2014, dated 2023)

C[C@@H](O)[C@@H]1NC(=O)[C@@H]2CSSC[C@@H](C(=O)N[C@@H](Cc3ccc(O)cc3)C(N)=O)NC(=O)[C@H](CCC(N)=O)NC(=O)[C@H](Cc3ccc(O)c(I)c3)NC(=O)[C@H](CCCNC(N)=O)NC(=O)[C@H](CSSC[C@H](NC(=O)CN)C(=O)N2)NC(=O)[C@H](CCCNC(=N)N)NC(=O)[C@@H]2CCCN2C(=O)[C@H](CC(=O)O)NC1=O [CSP-4-NH2, GCCTDPRCX11X12QCY-amide]
stability in human plasma (Citrate): increased stability compared to CSP-4
